For data set [1] the following is noted: hydrocortisone = 1; cited from earlier work.
In data set [2] the test system is transplanted corneal grafts. As to the kind of experiment: Corneal allograft rejection after penetrating keratoplasty, weekly SC injection. Type of data set: in vivo, Lewis rats. The settings on record: for survival rate of cornea grafts: weekly SC 50 μL at 1 mg DSP/mL. The method, then: All procedures performed with rats were approved by the Johns Hopkins University Animal Care and Use Committee. The Brown-Norway donor rats were sacrificed and the central corneal button of both eyes were removed with a 4.0-mm trephine and kept in physiological solution ready for use. The surgery was performed by a corneal surgeon (QP) under an operating microscope. The cornea recipient Lewis rats were anesthetized with an intramuscular injection of a mixture of Ketamine (80 mg/kg) and Xylazine (8 mg/kg). Repeated instillations of 0.5% tropicamide eye drops were used on Lewis rats for total pupil dilation before surgery. A paracentesis was performed before trephinization, and the anterior chamber was filled with hyaluronic acid. The corneal buttons were removed from the receptor Lewis rats with a 3.5-mm trephine. The donor corneal button was sutured to receptor cornea with 8 suture points.
All groups of animals were undertaken same treatment once every week until the failure of grafts or the end point of study (9 week).
The clinical observations with a slit lamp microscope were performed by two ophthalmologists (QP and LT) on post-operational (PO) 2 week for group 1 and group 2, PO 4 week for group 3 and PO 9 week for group 4. Three parameters were evaluated for the examination of the corneal grafts (cornea transparency, edema and neovascularization). The scoring for the parameters is presented below.
Intraocular pressure was monitored at PO 2 day, 1 week, 2 week, 4 week, 6 week, 8 week and 9 week after the surgery. IOP recorded for each eye is the average of three successful measurements. Animals at the end time points were sacrificed by CO2 and the eyes with PK surgery were enucleated. Eye tissues were fixed with 10% formalin for 24 h before embedding in paraffin. Sections (5 μm) were cut from through the direction of optical nerve and cornea, and stained with H&E.

Data set [3] can be described thus: In vivo ocular DSP levels after SC injection ([3H]-labeled DSP). Also noted: species or system Sprague Dawley rat. Here is the method:
Nanoparticles were suspended in saline at 20 μCi/mL. […] 40 μL (˜0.8 μCi per eye) of same formulation was injected to both eyes of the same animal (Sprague Dawley rat). At the indicated time intervals, 2 h, 1 day, 3 day, 5 day and 7 day after injection, the rats were anesthetized by intramuscular injection of ketamine/xylazine solution. The animal was sacrificed after collecting two drops of blood from the tail vein.
The eye ball with conjunctiva tissue was carefully removed from rats and rinsed with PBS, dried by Kimwipe tissue. The anterior chamber humor, cornea, vitreous, retina and the remaining eye ball tissue were carefully dissected and collected. Both cornea and retina tissues were rinsed with PBS and dried with Kimwipe tissue. All the samples were weighed, dissolved with 2 mL of Solvable by incubation at 50° C. overnight. Blood samples were bleached with 0.2 ml H2O2 and 20 μL, 0.5M EDTA. 10 ml […] scintillation medium was added before counting the radioactivity in a scintillation counter. The results were expressed as a percentage of the injected dose and are the mean±sd of four eyes (2 animals) per data point. […] Total percentage of injected dose at the periocular tissue and the radioactivity per mg (or mL) of tissue were calculated.
Fifty μL (˜0.8 per eye) of the same formulation was administered to both eyes of the same animal (Sprague Dawley rat) through SC injection. At POD14, the rats under anesthesia were sacrificed after collecting two drops of blood from the tail vein. The aqueous, vitreous, and the remaining ocular tissues containing injection sites were carefully dissected and collected. All the samples were weighed and then dissolved with 2 mL of Solvable (Perkin Elmer, Waltham, Mass.) by incubation at 50° C. overnight. Blood samples were bleached with 0.2 mL H2O2 and 20 μL 0.5M EDTA. Ten milliliters of Ultima gold scintillation medium (Perkin Elmer, Waltham, Mass.) was added before counting the radioactivity in a scintillation counter (Perkin Elmer, Waltham, Mass.). The results were expressed as a percentage of the injected dose and are the mean±standard deviation (SD) of four eyes per data point. […] The total percentage of the injected dose at the injection sites and the radioactivity per mg of tissue or mL of blood were calculated.

Counter-ions that a name gives are not always drawn. Bounds are passed on as bounds.

In the case of `CC(=O)OCC(=O)[C@@]1(O)[C@H](C)C[C@H]2[C@@H]3C=C(C)C4=Cc5c(cnn5-c5ccccc5)C[C@]4(C)[C@H]3[C@@H](O)C[C@@]21C` [Cortivazol], the “Relative Potency of Glucocorticoid” value in data set [1] was 50.

As for `C[C@@H]1C[C@H]2[C@@H]3CCC4=CC(=O)C=C[C@]4(C)[C@@]3(F)[C@@H](O)C[C@]2(C)[C@@]1(O)C(=O)COP(=O)(O)O` [DSP, Dexamethasone 21-phosphate sodium salt], the “survival rate of cornea grafts” value in data set [2] (PO 2 week) was 100%; in data set [2] (PO 3 week) it was 80%. Also, the “histological examination of cornea tissues at end point” value in data set [2] (PO 4 week for DSP, PO 9 week for DSP-NP) is “swollen and thicker than the normal healthy cornea”. Besides, the “time at which all grafts were rejected” value in data set [2] (PO, weekly SC injection) is listed as 4 week. Moreover, the “cornea transparency (clinical observation)” value in data set [2] (weekly SC injection) is “as opaque as saline control and NP control groups”. For the same molecule, in data set [2] (weekly SC injection, versus control groups), the “graft neovascularization (clinical observation)” value is recorded as “less neovascularization”. Moreover, the “graft edema (clinical observation)” value in data set [2] (weekly SC injection, versus saline and NP control) is “significant less edema”. In addition, in data set [3] (PO 2 h, SC injection), the “DSP level in blood” value is given as ≤ 350 ng DSP per ml. Moreover, the “total dose retained at the conjunctiva tissue” value in data set [3] (PO 2 h, single SC injection, ~0.08 mg DSP) is “Approximately 0.4%”. For the same molecule, the “DSP in anterior chamber and vitreous” value in data set [3] (PO 7 day after SC administration) is given as “not detectable”. For the same molecule, the “DSP at the conjunctiva tissue” value in data set [3] (PO day 1, single SC injection) is given as “almost no DSP can be detected”. In data set [3] (SC injection), the “DSP levels at retina and cornea” value is “very low”. Moreover, the “time to clearance after SC injection” value in data set [3] (rat, in vivo, sc) is given as “up to 2 hours”.

For the molecule `C[C@]12CCC(=O)C=C1CC[C@@H]1[C@@H]2[C@@H](O)C[C@@]2(C)[C@H]1CC[C@]2(O)C(=O)CO` [Hydrocortisone], in data set [1], the “Relative Potency of Glucocorticoid” value is given as 1.

Take `C[C@]12C=CC(=O)C=C1CC[C@@H]1[C@@H]2[C@@H](O)C[C@@]2(C)[C@H]1CC[C@]2(O)C(=O)CO` [Prednisolone]: the “Relative Potency of Glucocorticoid” value in data set [1] is reported as 4.

Turning to `C[C@]12C=CC(=O)C=C1CC[C@H]1[C@@H]3C[C@@H](O)[C@](O)(C(=O)CO)[C@@]3(C)C[C@H](O)[C@@]12F` [Triamcinolone], in data set [1], the “Relative Potency of Glucocorticoid” value is recorded as 5.

Values taken from patent publication US10195212B2, “Glucocorticoid-loaded nanoparticles for prevention of corneal allograft rejection and neovascularization” (The Johns Hopkins University, priority 2014, dated 2019).
